Assays:
Type in all cases: functional
Parameters in all cases: scale not given: the % may be the effect or the level left
Phytophthora infestans [1] = assay: Fungicidal activity against Phytophthora infestans infected tomato assessed as reduction in tomato late blight disease at 50 mg/l applied for 1 day prior to infection relative to untreated control
Botrytis cinerea [2] = assay: Fungicidal activity against Botryotinia fuckeliana infected cucumber assessed as reduction in cucumber gray mold disease at 50 mg/l applied for 1 day prior to infection relative to untreated control
Blumeria graminis [3] = assay: Fungicidal activity against Blumeria graminis infected barley assessed as reduction in powdery mildew disease at 500 mg/l applied for 1 day prior to infection relative to untreated control
Puccinia recondita [4] = assay: Fungicidal activity against Puccinia recondita infected wheat assessed as reduction in wheat leaf rust disease at 500 mg/l applied for 1 day prior to infection relative to untreated control
Phytophthora infestans [5] = assay: Fungicidal activity against Phytophthora infestans infected tomato assessed as reduction in tomato late blight disease at 1000 mg/l applied for 1 day prior to infection relative to untreated control
Pyricularia grisea [6] = assay: Fungicidal activity against Magnaporthe grisea infected rice assessed as reduction in rice blast disease at 500 mg/l applied for 1 day prior to infection relative to untreated control
Pyricularia grisea [7] = assay: Fungicidal activity against Magnaporthe grisea infected rice assessed as reduction in rice blast disease at 1000 mg/l applied for 1 day prior to infection relative to untreated control
Botrytis cinerea [8] = assay: Fungicidal activity against Botryotinia fuckeliana infected cucumber assessed as reduction in cucumber gray mold disease at 500 mg/l applied for 1 day prior to infection relative to untreated control
Rhizoctonia solani [9] = assay: Fungicidal activity against Rhizoctonia solani infected rice assessed as reduction in rice sheath blight disease at 500 mg/l applied for 1 day prior to infection relative to untreated control
Botrytis cinerea [10] = assay: Fungicidal activity against Botryotinia fuckeliana infected cucumber assessed as reduction in cucumber gray mold disease at 1000 mg/l applied for 1 day prior to infection relative to untreated control
Rhizoctonia solani [11] = assay: Fungicidal activity against Rhizoctonia solani infected rice assessed as reduction in rice sheath blight disease at 1000 mg/l applied for 1 day prior to infection relative to untreated control
Blumeria graminis [12] = assay: Fungicidal activity against Blumeria graminis infected barley assessed as reduction in powdery mildew disease at 1000 mg/l applied for 1 day prior to infection relative to untreated control
Phytophthora infestans [13] = assay: Fungicidal activity against Phytophthora infestans infected tomato assessed as reduction in tomato late blight disease at 500 mg/l applied for 1 day prior to infection relative to untreated control
Puccinia recondita [14] = assay: Fungicidal activity against Puccinia recondita infected wheat assessed as reduction in wheat leaf rust disease at 1000 mg/l applied for 1 day prior to infection relative to untreated control
Phytophthora infestans [15] = assay: Fungicidal activity against Phytophthora infestans infected tomato assessed as reduction in tomato late blight disease at 250 mg/l applied for 1 day prior to infection relative to untreated control
Rhizoctonia solani [16] = assay: Fungicidal activity against Rhizoctonia solani infected rice assessed as reduction in rice sheath blight disease at 250 mg/l applied for 1 day prior to infection relative to untreated control
Botrytis cinerea [17] = assay: Fungicidal activity against Botryotinia fuckeliana infected cucumber assessed as reduction in cucumber gray mold disease at 250 mg/l applied for 1 day prior to infection relative to untreated control
Blumeria graminis [18] = assay: Fungicidal activity against Blumeria graminis infected barley assessed as reduction in powdery mildew disease at 250 mg/l applied for 1 day prior to infection relative to untreated control
Puccinia recondita [19] = assay: Fungicidal activity against Puccinia recondita infected wheat assessed as reduction in wheat leaf rust disease at 250 mg/l applied for 1 day prior to infection relative to untreated control
Pyricularia grisea [20] = assay: Fungicidal activity against Magnaporthe grise infected rice assessed as reduction in rice blast disease at 250 mg/l applied for 1 day prior to infection relative to untreated control

N#Cc1c(Cl)c(Cl)c(Cl)c(C#N)c1Cl [CHLOROTHALONIL]
Activity (Phytophthora infestans [1]): 95%

CN(C)S(=O)(=O)N(SC(F)(Cl)Cl)c1ccccc1 [DICHLOFLUANID]
Activity (Botrytis cinerea [2]): 92%

C=CCc1ccc(O)c(OC)c1 [EUGENOL]
Activity (Blumeria graminis [3]): 0%
Activity (Puccinia recondita [4]): 0%
Activity (Phytophthora infestans [5]): 0%
Activity (Pyricularia grisea [6]): 0%
Activity (Pyricularia grisea [7]): 0%
Activity (Botrytis cinerea [8]): 0%
Activity (Rhizoctonia solani [9]): 0%
Activity (Botrytis cinerea [10]): 0%
Activity (Rhizoctonia solani [11]): 0%
Activity (Blumeria graminis [12]): 5%
Activity (Phytophthora infestans [13]): 0%
Activity (Puccinia recondita [14]): 0%

O=C(CCCC/C=C/c1ccc2c(c1)OCO2)N1CCCCC1 [PIPERETTINE]
Activity (Blumeria graminis [3]): 40%
Activity (Puccinia recondita [4]): 0%
Activity (Phytophthora infestans [5]): 0%
Activity (Pyricularia grisea [6]): 0%
Activity (Pyricularia grisea [7]): 0%
Activity (Botrytis cinerea [8]): 0%
Activity (Rhizoctonia solani [9]): 0%
Activity (Botrytis cinerea [10]): 0%
Activity (Rhizoctonia solani [11]): 0%
Activity (Blumeria graminis [12]): 60%
Activity (Phytophthora infestans [13]): 0%
Activity (Puccinia recondita [14]): 0%

O=C(/C=C/C=C/c1ccc2c(c1)OCO2)N1CCCCC1 [PIPERINE]
Activity (Blumeria graminis [3]): 0%
Activity (Puccinia recondita [4]): 0%
Activity (Phytophthora infestans [5]): 0%
Activity (Pyricularia grisea [6]): 0%
Activity (Pyricularia grisea [7]): 0%
Activity (Botrytis cinerea [8]): 0%
Activity (Rhizoctonia solani [9]): 0%
Activity (Botrytis cinerea [10]): 0%
Activity (Rhizoctonia solani [11]): 0%
Activity (Blumeria graminis [12]): 0%
Activity (Phytophthora infestans [13]): 0%
Activity (Puccinia recondita [14]): 0%

O=C(/C=C/CCCC/C=C/c1ccc2c(c1)OCO2)N1CCCCC1 [PIPERNONALINE]
Activity (Blumeria graminis [3]): 0%
Activity (Phytophthora infestans [15]): 55%
Activity (Puccinia recondita [4]): 91%
Activity (Phytophthora infestans [5]): 91%
Activity (Pyricularia grisea [6]): 51%
Activity (Pyricularia grisea [7]): 71%
Activity (Botrytis cinerea [8]): 0%
Activity (Rhizoctonia solani [9]): 0%
Activity (Rhizoctonia solani [16]): 0%
Activity (Botrytis cinerea [17]): 0%
Activity (Botrytis cinerea [10]): 0%
Activity (Rhizoctonia solani [11]): 35%
Activity (Blumeria graminis [12]): 0%
Activity (Phytophthora infestans [13]): 80%
Activity (Blumeria graminis [18]): 0%
Activity (Puccinia recondita [19]): 80%
Activity (Puccinia recondita [14]): 100%
Activity (Pyricularia grisea [20]): 26%

COc1cc(/C=C/C(=O)N2CCC=CC2=O)cc(OC)c1OC [PIPLARTINE]
Activity (Blumeria graminis [3]): 0%
Activity (Puccinia recondita [4]): 0%
Activity (Phytophthora infestans [5]): 0%
Activity (Pyricularia grisea [6]): 0%
Activity (Pyricularia grisea [7]): 10%
Activity (Botrytis cinerea [8]): 0%
Activity (Rhizoctonia solani [9]): 0%
Activity (Botrytis cinerea [10]): 0%
Activity (Rhizoctonia solani [11]): 0%
Activity (Blumeria graminis [12]): 0%
Activity (Phytophthora infestans [13]): 0%
Activity (Puccinia recondita [14]): 0%

From ChEMBL document CHEMBL3045442, “Fungicidal activity of pipernonaline, a piperidine alkaloid derived from long pepper, Piper longum L., against phytopathogenic fungi” (2001)
